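Briefly, cells in 96-well plates were exposed to five compound concentrations for 48 h, and endpoints were estimated by linear interpolation. TGI denotes the concentration required for complete inhibition of growth.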
How the values were obtained:
Experiment in all cases: growth of human tumour cells (NCI), 48 h
786-0 renal = system: 786-0 renal
A498 renal = system: A498 renal
A549 NSCLC = system: A549 NSCLC
ACHN renal = system: ACHN renal
CAKI-1 renal = system: CAKI-1 renal
CCRF-CEM leukemia = system: CCRF-CEM leukemia
COLO 205 colon = system: COLO 205 colon
DLD-1 colon = system: DLD-1 colon
DMS 114 small cell lung = system: DMS 114 small cell lung
DMS 273 small cell lung = system: DMS 273 small cell lung
EKVX NSCLC = system: EKVX NSCLC
HCC-2998 colon = system: HCC-2998 colon
HCT-116 colon = system: HCT-116 colon
HCT-15 colon = system: HCT-15 colon
HL-60(TB) leukemia = system: HL-60(TB) leukemia
HOP-62 NSCLC = system: HOP-62 NSCLC
HT29 colon = system: HT29 colon
IGROV1 ovarian = system: IGROV1 ovarian
K-562 leukemia = system: K-562 leukemia
KM12 colon = system: KM12 colon
KM20L2 colon = system: KM20L2 colon
LOX IMVI melanoma = system: LOX IMVI melanoma
LXFL 529 NSCLC = system: LXFL 529 NSCLC
M14 melanoma = system: M14 melanoma
M19-MEL melanoma = system: M19-MEL melanoma
MALME-3M melanoma = system: MALME-3M melanoma
MOLT-4 leukemia = system: MOLT-4 leukemia
NCI-H226 lung = system: NCI-H226 lung
NCI-H23 lung = system: NCI-H23 lung
NCI-H460 lung = system: NCI-H460 lung
NCI-H522 lung = system: NCI-H522 lung
OVCAR-3 ovarian = system: OVCAR-3 ovarian
OVCAR-4 ovarian = system: OVCAR-4 ovarian
OVCAR-8 ovarian = system: OVCAR-8 ovarian
RPMI-8226 leukemia = system: RPMI-8226 leukemia
RXF 393 renal = system: RXF 393 renal
RXF-631 renal = system: RXF-631 renal
SF-295 CNS = system: SF-295 CNS
SF-539 CNS = system: SF-539 CNS
SK-MEL-2 melanoma = system: SK-MEL-2 melanoma
SK-MEL-5 melanoma = system: SK-MEL-5 melanoma
SN12C renal = system: SN12C renal
SNB-19 CNS = system: SNB-19 CNS
SNB-75 CNS = system: SNB-75 CNS
SR leukemia = system: SR leukemia
SW-620 colon = system: SW-620 colon
TK-10 renal = system: TK-10 renal
U251 CNS = system: U251 CNS
UACC-257 melanoma = system: UACC-257 melanoma
UACC-62 melanoma = system: UACC-62 melanoma
UO-31 renal = system: UO-31 renal
XF 498 CNS = system: XF 498 CNS
HOP-18 NSCLC = system: HOP-18 NSCLC
OVCAR-5 ovarian = system: OVCAR-5 ovarian
SF-268 CNS = system: SF-268 CNS
SK-MEL-28 melanoma = system: SK-MEL-28 melanoma
SK-OV-3 ovarian = system: SK-OV-3 ovarian
SNB-78 CNS = system: SNB-78 CNS

Measured: TGI

CS(=O)(=O)NNS(=O)(=O)c1ccc(Cl)cc1
> 100 µM: 786-0 renal | A498 renal | A549 NSCLC | ACHN renal | CAKI-1 renal | CCRF-CEM leukemia | COLO 205 colon | DLD-1 colon | DMS 114 small cell lung | DMS 273 small cell lung | EKVX NSCLC | HCC-2998 colon | HCT-116 colon | HCT-15 colon | HL-60(TB) leukemia | HOP-62 NSCLC | HT29 colon | IGROV1 ovarian | K-562 leukemia | KM12 colon | KM20L2 colon | LOX IMVI melanoma | LXFL 529 NSCLC | M14 melanoma | M19-MEL melanoma | MALME-3M melanoma | MOLT-4 leukemia | NCI-H23 lung | NCI-H460 lung | NCI-H522 lung | OVCAR-3 ovarian | OVCAR-4 ovarian | OVCAR-8 ovarian | RPMI-8226 leukemia | RXF 393 renal | RXF-631 renal | SF-295 CNS | SF-539 CNS | SK-MEL-2 melanoma | SK-MEL-5 melanoma | SN12C renal | SNB-19 CNS | SNB-75 CNS | SR leukemia | SW-620 colon | TK-10 renal | U251 CNS | UACC-257 melanoma | UACC-62 melanoma | UO-31 renal | XF 498 CNS
96.3 µM: NCI-H226 lung

CCOC(=O)c1c(-c2ccccc2)c(C(OC(c2ccccc2)c2c(-c3ccccc3)c(C(=O)OCC)n3ccccc23)c2ccccc2)c2ccccn12 (stereo not drawn)
> 100 µM: 786-0 renal | A549 NSCLC | ACHN renal | CAKI-1 renal | CCRF-CEM leukemia | COLO 205 colon | DLD-1 colon | DMS 273 small cell lung | EKVX NSCLC | HCC-2998 colon | HCT-116 colon | HCT-15 colon | HL-60(TB) leukemia | HOP-18 NSCLC | HOP-62 NSCLC | HT29 colon | IGROV1 ovarian | K-562 leukemia | KM12 colon | KM20L2 colon | LOX IMVI melanoma | LXFL 529 NSCLC | M14 melanoma | MALME-3M melanoma | MOLT-4 leukemia | NCI-H226 lung | NCI-H23 lung | NCI-H460 lung | NCI-H522 lung | OVCAR-3 ovarian | OVCAR-4 ovarian | OVCAR-5 ovarian | OVCAR-8 ovarian | RPMI-8226 leukemia | RXF 393 renal | SF-268 CNS | SF-295 CNS | SK-MEL-2 melanoma | SK-MEL-28 melanoma | SK-OV-3 ovarian | SN12C renal | SNB-19 CNS | SNB-75 CNS | SNB-78 CNS | SR leukemia | SW-620 colon | TK-10 renal | UACC-257 melanoma | UACC-62 melanoma | UO-31 renal | XF 498 CNS

— PubChem BioAssay (NCI)
